{"source": "patent US20030039681A1", "about": "“Rapid growth dairy heifers having reduced mammary fat content” (priority 2001, published 2003)", "origin": "cited, not measured here", "key": {"[1]": {"tested_on": "preadipocytes"}, "[2]": {"tested_on": "adipose tissue", "conditions": "growing pigs, CLA-supplement fed"}, "[3]": {"tested_on": "lactating dairy cattle", "conditions": "abomasal infusion"}}, "data": [{"substance": "conjugated linoleic acid [CLA]", "values": [{"measurement": "proliferation of preadipocytes", "setting": "[1]", "value": "inhibits"}, {"measurement": "carcass lipid content", "setting": "[2]", "value": "lower"}, {"measurement": "lipogenesis in adipose tissue", "setting": "[2]", "value": "decreases"}, {"measurement": "milk fat content", "setting": "[3]", "value": "decreases"}]}]}
